Assays:
CYP 2E1 = target: T1, CYP 2E1 (Homo sapiens, UniProt P05181); assay: Methemoglobinemic metabolite formation with Baculosomes, CYP 2E1; type: cell-based; conditions: mean ± S.D. of four
T1 construct: purchased; host or cells: insect cells infected with recombinant baculovirus

Plasmodium berghei = assay: In vivo antimalarial evaluation in Plasmodium berghei-mouse malaria model
Text: One concern with this method of controlling 8-aminoquinoline toxicity is that the inhibition metabolism of the drug may impair its antiparasitic efficacy. […] Thus treatment of the individuals with NPC1161B along with an inhibitor of CYP3A4 should not compromise the therapeutic efficiency of NPC1161B.

[1] = test system: individual human liver microsomes (HLM)
Method: In one aspect of the present invention, an in vitro assay is developed for evaluation of biotransformation reactions leading to generation of methemoglobinemic metabolites of 8-aminoquinolines. This method uses simultaneous incubation of a test compound with the hepatic microsomes or Baculosomes® (microsomes prepared from insect cells infected with recombinant baculovirus containing a cDNA insert for a specific human P450 isozyme and NADPH-P450 reductase) and human erythrocytes followed by determination of methemoglobin formation. This allows the unstable metabolites generated in situ to react with the human erythrocytes.
For Correlation analysis six different lots of individual human liver microsomes (HLM) were obtained from BD biosciences (www.gentest.com ) with good variations in CYP3A4 activity (Testosterone 6β-hydroxylase activity ranging from 700-12,000 pmol/mg protein). […] Donor information, genotypes, immunoquantitation was provided along with the characterization table, with different cytochrome P450 assays conducted with NADPH regenerating system, MgCl2 and 0.1M potassium phosphate buffer.

CYP 3A4 = target: T2, CYP 3A4 (Homo sapiens, UniProt P08684); assay: Methemoglobinemic metabolite formation with Baculosomes, CYP 3A4; type: cell-based
T2 construct: purchased; host or cells: insect cells infected with recombinant baculovirus
T2 sequence (P08684 2-503 limits assumed): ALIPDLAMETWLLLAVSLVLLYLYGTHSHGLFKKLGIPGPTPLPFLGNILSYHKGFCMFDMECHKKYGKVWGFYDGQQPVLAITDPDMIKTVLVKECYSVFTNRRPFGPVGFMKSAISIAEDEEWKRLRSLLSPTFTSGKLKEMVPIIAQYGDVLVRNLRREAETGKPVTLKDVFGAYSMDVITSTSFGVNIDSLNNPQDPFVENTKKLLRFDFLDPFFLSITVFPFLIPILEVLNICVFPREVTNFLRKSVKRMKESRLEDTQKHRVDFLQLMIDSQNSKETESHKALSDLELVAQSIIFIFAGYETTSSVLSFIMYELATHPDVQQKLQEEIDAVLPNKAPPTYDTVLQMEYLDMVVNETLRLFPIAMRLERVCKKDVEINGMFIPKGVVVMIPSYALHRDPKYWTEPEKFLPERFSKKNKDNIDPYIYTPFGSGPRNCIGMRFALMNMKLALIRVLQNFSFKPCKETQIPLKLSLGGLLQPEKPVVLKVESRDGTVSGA

T1 sequence (P05181 whole entry): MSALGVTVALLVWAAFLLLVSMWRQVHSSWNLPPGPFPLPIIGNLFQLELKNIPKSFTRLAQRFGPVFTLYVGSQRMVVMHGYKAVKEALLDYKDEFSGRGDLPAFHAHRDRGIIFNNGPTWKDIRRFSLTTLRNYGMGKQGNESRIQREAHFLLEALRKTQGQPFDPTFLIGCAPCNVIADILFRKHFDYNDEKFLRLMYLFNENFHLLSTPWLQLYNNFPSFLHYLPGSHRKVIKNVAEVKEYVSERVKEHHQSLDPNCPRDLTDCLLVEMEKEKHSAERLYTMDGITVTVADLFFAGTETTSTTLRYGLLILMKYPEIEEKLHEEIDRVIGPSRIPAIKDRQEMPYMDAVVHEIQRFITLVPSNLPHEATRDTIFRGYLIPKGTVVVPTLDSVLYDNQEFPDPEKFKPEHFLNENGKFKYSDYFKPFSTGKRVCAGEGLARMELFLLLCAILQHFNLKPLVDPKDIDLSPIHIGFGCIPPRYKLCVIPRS

COc1cc(N[C@H](C)CCCN)c2nccc(C)c2c1Oc1ccc(Cl)c(Cl)c1 [NPC1161B]
% methemoglobin formed, CYP 2E1 (CYP 2E1): 3.801 ± 1.996% | deaths (Plasmodium berghei; NPC 1161B 0.312 mg/kg × 3 oral +TAO (i.p.)): nil | (%) Parasitemia (Plasmodium berghei; NPC 1161B 0.312 mg/kg × 3 oral +TAO (i.p.), day 10 p.i., individual mice): 0/0/0/0/0 | (%) Parasitemia (Plasmodium berghei; NPC 1161B 0.312 mg/kg × 3 oral +TAO (i.p.), day 14 p.i., mean in brackets): 2.83/2.04/+/5.29/0 (2.0) % | (%) Parasitemia (Plasmodium berghei; NPC 1161B 0.312 mg/kg × 3 oral +TAO (i.p.), day 21 p.i., mean in brackets): 23.8/32.4/0/28.3/0 (16.9) % | deaths (Plasmodium berghei; NPC 1161B 0.312 mg/kg × 3 oral, Alone): nil | (%) Parasitemia (Plasmodium berghei; NPC 1161B 0.312 mg/kg × 3 oral, Alone, day 14 p.i., mean in brackets): 0/5.8/0.66/0.8/1.36 (2.9) % | (%) Parasitemia (Plasmodium berghei; NPC 1161B 0.312 mg/kg × 3 oral, Alone, day 21 p.i., mean in brackets): 11.3/53.3/19.4/6.0/17.8 (21.5) % | deaths (Plasmodium berghei; NPC 1161B 0.625 mg/kg × 3 oral +TAO (i.p.)): nil | (%) Parasitemia (Plasmodium berghei; NPC 1161B 0.625 mg/kg × 3 oral +TAO (i.p.), day 10 p.i., individual mice): 0/0/0/0/0 | (%) Parasitemia (Plasmodium berghei; NPC 1161B 0.625 mg/kg × 3 oral +TAO (i.p.), day 21 p.i., mean in brackets): 8.4/0/10.4/18.4/1.5 (7.7) % | deaths (Plasmodium berghei; NPC 1161B 0.625 mg/kg × 3 oral, Alone): nil | (%) Parasitemia (Plasmodium berghei; NPC 1161B 0.625 mg/kg × 3 oral, Alone, day 7 p.i., individual mice): 0/0/0/0/0 | (%) Parasitemia (Plasmodium berghei; NPC 1161B 0.625 mg/kg × 3 oral, Alone, day 21 p.i., mean in brackets): 0/+/5.2/2.6/3.7 (2.3) % | deaths (Plasmodium berghei; NPC 1161B 1.25 mg/kg × 3 oral +TAO (i.p.)): nil | (%) Parasitemia (Plasmodium berghei; NPC 1161B 1.25 mg/kg × 3 oral +TAO (i.p.), day 7 p.i., individual mice): 0/0/0/0/0 | (%) Parasitemia (Plasmodium berghei; NPC 1161B 1.25 mg/kg × 3 oral +TAO (i.p.), day 10 p.i., individual mice): 0/0/0/0/0 | (%) Parasitemia (Plasmodium berghei; NPC 1161B 1.25 mg/kg × 3 oral +TAO (i.p.), day 14 p.i., individual mice): 0/0/0/0/0 | (%) Parasitemia (Plasmodium berghei; NPC 1161B 1.25 mg/kg × 3 oral +TAO (i.p.), day 21 p.i., individual mice): 0/0/0/0/0 | (%) Parasitemia (Plasmodium berghei; NPC 1161B 1.25 mg/kg × 3 oral +TAO (i.p.), day 28 p.i., individual mice): 0/0/0/0/0 | deaths (Plasmodium berghei; NPC 1161B 1.25 mg/kg × 3 oral, Alone): nil | (%) Parasitemia (Plasmodium berghei; NPC 1161B 1.25 mg/kg × 3 oral, Alone, day 7 p.i., individual mice): 0/0/0/0/0 | (%) Parasitemia (Plasmodium berghei; NPC 1161B 1.25 mg/kg × 3 oral, Alone, day 10 p.i., individual mice): 0/0/0/0/0 | (%) Parasitemia (Plasmodium berghei; NPC 1161B 1.25 mg/kg × 3 oral, Alone, day 14 p.i., individual mice): 0/0/0/0/0 | (%) Parasitemia (Plasmodium berghei; NPC 1161B 1.25 mg/kg × 3 oral, Alone, day 21 p.i., individual mice): 0/0/0/0/0 | (%) Parasitemia (Plasmodium berghei; NPC 1161B 1.25 mg/kg × 3 oral, Alone, day 28 p.i., individual mice): 0/0/0/0/0 | deaths (Plasmodium berghei; NPC 1161B 2.5 mg/kg × 3 oral +TAO (i.p.)): nil | (%) Parasitemia (Plasmodium berghei; NPC 1161B 2.5 mg/kg × 3 oral +TAO (i.p.), day 7 p.i., individual mice): 0/0/0/0/0 | (%) Parasitemia (Plasmodium berghei; NPC 1161B 2.5 mg/kg × 3 oral +TAO (i.p.), day 10 p.i., individual mice): 0/0/0/0/0 | (%) Parasitemia (Plasmodium berghei; NPC 1161B 2.5 mg/kg × 3 oral +TAO (i.p.), day 14 p.i., individual mice): 0/0/0/0/0 | (%) Parasitemia (Plasmodium berghei; NPC 1161B 2.5 mg/kg × 3 oral +TAO (i.p.), day 21 p.i., individual mice): 0/0/0/0/0 | (%) Parasitemia (Plasmodium berghei; NPC 1161B 2.5 mg/kg × 3 oral +TAO (i.p.), day 28 p.i., individual mice): 0/0/0/0/0 | deaths (Plasmodium berghei; NPC 1161B 2.5 mg/kg × 3 oral, Alone): nil | (%) Parasitemia (Plasmodium berghei; NPC 1161B 2.5 mg/kg × 3 oral, Alone, day 7 p.i., individual mice): 0/0/0/0/0 | (%) Parasitemia (Plasmodium berghei; NPC 1161B 2.5 mg/kg × 3 oral, Alone, day 10 p.i., individual mice): 0/0/0/0/0 | (%) Parasitemia (Plasmodium berghei; NPC 1161B 2.5 mg/kg × 3 oral, Alone, day 14 p.i., individual mice): 0/0/0/0/0 | (%) Parasitemia (Plasmodium berghei; NPC 1161B 2.5 mg/kg × 3 oral, Alone, day 21 p.i., individual mice): 0/0/0/0/0 | (%) Parasitemia (Plasmodium berghei; NPC 1161B 2.5 mg/kg × 3 oral, Alone, day 28 p.i., individual mice): 0/0/0/0/0 | effect of troleandomycin on the antimalarial property of NPC1161B (Plasmodium berghei; mice infected with Plasmodium berghei, Table 7): does not antagonize | R value, linear correlation between % methemoglobin formation and CYP3A4 Content of HLM preparation [1]: > 0.9 | correlation of methemoglobin toxicity with CYP 2D6 or CYP2E1 contents of HLM preparations [1]: did not correlate | % methemoglobin formed, Cimetidine (CYP 3A4; 3A4 Baculosomes, 8-aminoquinoline 100 μM with Cimetidine 100 μM): 8.567 ± 0.600% | % methemoglobin formed, Erythromycin (CYP 3A4; 3A4 Baculosomes, 8-aminoquinoline 100 μM with Erythromycin 100 μM): 11.655 ± 1.818% | % methemoglobin formed, Ketoconazole (CYP 3A4; 3A4 Baculosomes, 8-aminoquinoline 100 μM with Ketoconazole 100 μM): 9.615 ± 1.552% | % methemoglobin formed, Troleandomycin (CYP 3A4; 3A4 Baculosomes, 8-aminoquinoline 100 μM with Troleandomycin 100 μM): 2.785 ± 0.628% | % methemoglobin formed, inhibitor None (CYP 3A4; 3A4 Baculosomes, 8-aminoquinoline 100 μM, no inhibitor): 18.185 ± 2.809% | % methemoglobin formed, CYP 3A4 (CYP 3A4; Baculosomes, mean ± S.D. of four): 15.280 ± 1.077% | CYP responsible for metabolism (CYP 3A4; FIG. 4, Table 2): primarily metabolized by CYP 3A4 | methemoglobin toxicity generated by CYP 3A4, comparison among the three 8-aminoquinolines (CYP 3A4; FIG. 5): almost similar methemoglobin toxicity

From patent publication US20070190188A1, “Controlling Toxicity of Aminoquinoline Compounds” (The University of Mississippi, priority 2005, published 2007)
